Assay results as given in PubChem BioAssay AID248 (DTP/NCI, 2004).
“And” between values parts separate entries of the source, which are not always exact repeats. Equal values may be shown once. Inconclusive results and toxic doses are left out.

System: L1210 leukemia ip in BDF1 mice, survival T/C
Experiment: NCI In Vivo Anticancer Drug Screen. Data for tumor model L1210 Leukemia (intraperitoneal) in B6D2F1 (BDF1) mice
Settings: endpoint: mean survival time, higher = longer survival
Summary of the method: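 Tumor was transplanted into mice, which were then dosed with test compound or vehicle alone. Survival was recorded for each group, and the treated figure was expressed relative to the control figure.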

[1] = dose: 100.0 mg/kg/injection, schedule: Q01DX001 (ip), vehicle: saline
[2] = dose: 200.0 mg/kg/injection, schedule: Q01DX001 (ip), vehicle: saline
[3] = dose: 400.0 mg/kg/injection, schedule: Q01DX001 (ip), vehicle: saline
[4] = dose: 100.0 mg/kg/injection, schedule: Q01DX001 (ip), vehicle: carboxymethylcellulose (CMC)
[5] = dose: 50.0 mg/kg/injection, schedule: Q01DX009 (ip), vehicle: Klucel (hydroxypropylcellulose) (HPC)
[6] = dose: 100.0 mg/kg/injection, schedule: Q01DX009 (ip), vehicle: Klucel (hydroxypropylcellulose) (HPC)
[7] = dose: 200.0 mg/kg/injection, schedule: Q01DX009 (ip), vehicle: Klucel (hydroxypropylcellulose) (HPC)
[8] = dose: 50.0 mg/kg/injection, schedule: Q01DX009 (ip), vehicle: saline with Tween-80
[9] = dose: 100.0 mg/kg/injection, schedule: Q01DX009 (ip), vehicle: saline with Tween-80
[10] = dose: 200.0 mg/kg/injection, schedule: Q01DX009 (ip), vehicle: saline with Tween-80
[11] = dose: 100.0 mg/kg/injection, schedule: Q01DX009 (ip), vehicle: saline
[12] = dose: 100.0 mg/kg/injection, schedule: Q04DX003 (ip), vehicle: saline with Tween-80
[13] = dose: 200.0 mg/kg/injection, schedule: Q04DX003 (ip), vehicle: saline with Tween-80
[14] = dose: 400.0 mg/kg/injection, schedule: Q04DX003 (ip), vehicle: Klucel (hydroxypropylcellulose) (HPC)
[15] = dose: 400.0 mg/kg/injection, schedule: Q04DX003 (ip), vehicle: saline with Tween-80
[16] = dose: 100.0 mg/kg/injection, schedule: Q04DX003 (ip), vehicle: Klucel (hydroxypropylcellulose) (HPC)
[17] = dose: 200.0 mg/kg/injection, schedule: Q04DX003 (ip), vehicle: Klucel (hydroxypropylcellulose) (HPC)
[18] = dose: 100.0 mg/kg/injection, schedule: Q04DX003 (ip), vehicle: saline
[19] = dose: 400.0 mg/kg/injection, schedule: Q01DX009 (ip), vehicle: Klucel (hydroxypropylcellulose) (HPC)

Structure (SMILES): CCN(CC)Cc1ccccc1COC(=O)c1ccc(OC)cc1
- T/C (dose: 100.0 mg/kg/injection, schedule: Q04DX002 (ip), vehicle: saline): 103 % of control
- T/C (dose: 200.0 mg/kg/injection, schedule: Q04DX002 (ip), vehicle: saline): 103 % of control

Structure (SMILES): Cc1cc2c3ccc(C)[n+](C)c3ccc2n1C
- T/C (dose: 1.25 mg/kg/injection, schedule: Q01DX009 (ip), vehicle: saline): 109 % of control
- T/C (dose: 2.5 mg/kg/injection, schedule: Q01DX009 (ip), vehicle: saline): 115 % of control
- T/C (dose: 2.5 mg/kg/injection, schedule: Q04DX003 (ip), vehicle: saline): 112 % of control
- T/C (dose: 5.0 mg/kg/injection, schedule: Q01DX009 (ip), vehicle: saline): 115 % of control
- T/C (dose: 5.0 mg/kg/injection, schedule: Q04DX003 (ip), vehicle: saline): 110 % of control
- T/C (dose: 9.5 mg/kg/injection, schedule: Q01DX001 (ip), vehicle: saline): 106 % of control
- T/C (dose: 10.0 mg/kg/injection, schedule: Q04DX003 (ip), vehicle: saline): 112 % of control
- T/C (dose: 20.0 mg/kg/injection, schedule: Q04DX003 (ip), vehicle: saline): 103 % of control

Structure (SMILES): CC(C)(C)CC(C)(C)O
- T/C [1]: 102 % of control
- T/C [2]: 102 % of control
- T/C [3]: 96 % of control

Structure (SMILES): CC(=O)Nc1ccc(S(=O)(=O)NC2(c3ccccc3)C(=O)N(C)C(=O)N(C)C2=O)cc1
- T/C [1]: 91 % of control
- T/C [2]: 94 % of control
- T/C [3]: 103 % of control

Structure (SMILES): C/C(O)=C(\C#N)c1ccc(Cl)cc1
- T/C (dose: 12.5 mg/kg/injection, schedule: Q01DX001 (ip), vehicle: carboxymethylcellulose (CMC)): 100 % of control
- T/C (dose: 12.5 mg/kg/injection, schedule: Q04DX003 (ip), vehicle: carboxymethylcellulose (CMC)): 100 % of control and 104 % of control
- T/C (dose: 25.0 mg/kg/injection, schedule: Q01DX001 (ip), vehicle: carboxymethylcellulose (CMC)): 108 % of control
- T/C (dose: 25.0 mg/kg/injection, schedule: Q01DX009 (ip), vehicle: carboxymethylcellulose (CMC)): 103 % of control and 113 % of control
- T/C (dose: 25.0 mg/kg/injection, schedule: Q04DX002 (ip), vehicle: carboxymethylcellulose (CMC)): 99 % of control and 100 % of control
- T/C (dose: 25.0 mg/kg/injection, schedule: Q04DX003 (ip), vehicle: carboxymethylcellulose (CMC)): 98 % of control and 90 % of control
- T/C (dose: 50.0 mg/kg/injection, schedule: Q01DX001 (ip), vehicle: carboxymethylcellulose (CMC)): 103 % of control and 111 % of control
- T/C (dose: 50.0 mg/kg/injection, schedule: Q01DX009 (ip), vehicle: carboxymethylcellulose (CMC)): 96 % of control and 100 % of control
- T/C (dose: 50.0 mg/kg/injection, schedule: Q04DX002 (ip), vehicle: carboxymethylcellulose (CMC)): 102 % of control and 103 % of control
- T/C (dose: 50.0 mg/kg/injection, schedule: Q04DX003 (ip), vehicle: carboxymethylcellulose (CMC)): 94 % of control and 98 % of control
- T/C [4]: 97 % of control and 102 % of control
- T/C (dose: 100.0 mg/kg/injection, schedule: Q01DX009 (ip), vehicle: carboxymethylcellulose (CMC)): 94 % of control
- T/C (dose: 100.0 mg/kg/injection, schedule: Q04DX002 (ip), vehicle: carboxymethylcellulose (CMC)): 93 % of control and 90 % of control

Structure (SMILES): Cc1c(CC#N)cc(C)c2c3c([nH]c12)CCCC3
- T/C [5]: 95 % of control
- T/C [6]: 98 % of control
- T/C [7]: 91 % of control

Structure (SMILES): COc1cc(CC(=O)NO)cc(OC)c1OC
- T/C (dose: 50.0 mg/kg/injection, schedule: Q01DX005 (ip), vehicle: saline with Tween-80): 93 % of control
- T/C [8]: 100 % of control
- T/C (dose: 100.0 mg/kg/injection, schedule: Q01DX005 (ip), vehicle: saline with Tween-80): 110 % of control
- T/C [9]: 96 % of control
- T/C (dose: 200.0 mg/kg/injection, schedule: Q01DX005 (ip), vehicle: saline with Tween-80): 93 % of control
- T/C [10]: 100 % of control

Structure (SMILES): O=S(=O)(NNS(=O)(=O)c1ccccc1)c1ccccc1
- T/C (dose: 100.0 mg/kg/injection, schedule: Q01DX001 (ip), vehicle: saline with Tween-80): 101 % of control
- T/C (dose: 200.0 mg/kg/injection, schedule: Q01DX001 (ip), vehicle: saline with Tween-80): 94 % of control
- T/C (dose: 400.0 mg/kg/injection, schedule: Q01DX001 (ip), vehicle: saline with Tween-80): 88 % of control

Structure (SMILES): O=C(CCBr)NCNC(=O)CCBr
- T/C (dose: 53.0 mg/kg/injection, schedule: Q04DX003 (ip), vehicle: Klucel (hydroxypropylcellulose) (HPC)): 114 % of control
- T/C (dose: 80.0 mg/kg/injection, schedule: Q04DX003 (ip), vehicle: Klucel (hydroxypropylcellulose) (HPC)): 109 % of control
- T/C [11]: 86 % of control
- T/C [12]: 113 % of control
- T/C (dose: 120.0 mg/kg/injection, schedule: Q04DX003 (ip), vehicle: Klucel (hydroxypropylcellulose) (HPC)): 116 % of control
- T/C [13]: 117 % of control
- T/C (dose: 264.0 mg/kg/injection, schedule: Q04DX003 (ip), vehicle: acetone): 153 % of control
- T/C (dose: 266.0 mg/kg/injection, schedule: Q04DX003 (ip), vehicle: Klucel (hydroxypropylcellulose) (HPC)): 154 % of control
- T/C (dose: 266.0 mg/kg/injection, schedule: Q04DX003 (ip), vehicle: saline): 114 % of control
- T/C [14]: 170 % of control
- T/C (dose: 400.0 mg/kg/injection, schedule: Q04DX003 (ip), vehicle: acetone): 113 % of control
- T/C [15]: 151 % of control
- T/C (dose: 400.0 mg/kg/injection, schedule: Q04DX003 (ip), vehicle: saline): 120 % of control

Structure (SMILES): COc1ccc(C(O)c2cc(-c3ccncc3)c(C(O)c3ccc(OC)cc3)nn2)cc1 (stereo unspecified)
- T/C (dose: 100.0 mg/kg/injection, schedule: Q04DX003 (ip), vehicle: gum acacia): 94 % of control
- T/C (dose: 200.0 mg/kg/injection, schedule: Q04DX003 (ip), vehicle: gum acacia): 96 % of control
- T/C (dose: 400.0 mg/kg/injection, schedule: Q04DX003 (ip), vehicle: gum acacia): 88 % of control

Structure (SMILES): CN(C)C(=O)NS(=O)(=O)c1ccc(Cl)cc1
- T/C [16]: 91 % of control
- T/C [17]: 96 % of control
- T/C [14]: 95 % of control

Structure (SMILES): Cn1c(=O)c2c(ncn2CC[n+]2cccc(C(N)=O)c2)n(C)c1=O
- T/C [18]: 101 % of control
- T/C (dose: 200.0 mg/kg/injection, schedule: Q04DX003 (ip), vehicle: saline): 97 % of control

Structure (SMILES): CC(C)=CCC(O)(c1ccccc1)C(C)CN(C)C (stereo unspecified)
- T/C (dose: 12.5 mg/kg/injection, schedule: Q01DX009 (ip), vehicle: saline): 94 % of control
- T/C (dose: 12.5 mg/kg/injection, schedule: Q04DX003 (ip), vehicle: saline): 94 % of control
- T/C (dose: 25.0 mg/kg/injection, schedule: Q01DX009 (ip), vehicle: saline): 106 % of control and 103 % of control
- T/C (dose: 25.0 mg/kg/injection, schedule: Q04DX003 (ip), vehicle: saline): 94 % of control
- T/C [5]: 100 % of control
- T/C (dose: 50.0 mg/kg/injection, schedule: Q01DX009 (ip), vehicle: saline): 101 % of control and 96 % of control
- T/C (dose: 50.0 mg/kg/injection, schedule: Q04DX003 (ip), vehicle: saline): 118 % of control
- T/C [6]: 97 % of control
- T/C [11]: 98 % of control
- T/C [7]: 95 % of control

Structure (SMILES): O=C1c2ccccc2C(=O)C1(c1ccccc1)c1ccccc1
- T/C [4]: 103 % of control
- T/C (dose: 200.0 mg/kg/injection, schedule: Q01DX001 (ip), vehicle: carboxymethylcellulose (CMC)): 97 % of control
- T/C (dose: 400.0 mg/kg/injection, schedule: Q01DX001 (ip), vehicle: carboxymethylcellulose (CMC)): 92 % of control

Structure (SMILES): CCOC(=O)c1cnc(SC)nc1Nc1ccccc1Cl
- T/C [12]: 87 % of control
- T/C [13]: 87 % of control

Structure (SMILES): NCC(O)c1ccc(OCc2ccccc2)cc1 (stereo unspecified)
- T/C [1]: 94 % of control
- T/C [2]: 103 % of control
- T/C [3]: 108 % of control

Structure (SMILES): CC(=O)CC(=O)N1CCC(C)CC1
- T/C [6]: 96 % of control
- T/C [16]: 103 % of control
- T/C [7]: 100 % of control
- T/C [17]: 101 % of control
- T/C [19]: 95 % of control
- T/C [14]: 101 % of control

Structure (SMILES): C=C(Br)CN(CC)C(C)=O
- T/C [18]: 108 % of control

Structure (SMILES): CN(C)N=Nc1ccc(Cl)cc1C(N)=O
- T/C [9]: 104 % of control
- T/C [12]: 105 % of control
- T/C [10]: 110 % of control
- T/C [13]: 102 % of control
- T/C [15]: 100 % of control

Structure (SMILES): O=C1OC(=O)C2C1C1C=CC2C12CC2 (stereo unspecified)
- T/C [8]: 97 % of control
- T/C [9]: 102 % of control
- T/C [10]: 105 % of control

Structure (SMILES): CN(C)c1ncnc(N)n1
- T/C [6]: 91 % of control
- T/C [16]: 95 % of control
- T/C [7]: 88 % of control
- T/C [17]: 98 % of control
- T/C [19]: 90 % of control
- T/C [14]: 97 % of control
